Data on three compounds can be found in US8697667B2, “Cyclodextrin-modified polyamines for delivery of therapeutic molecules” (Rutgers, The State University of New Jersey, priority 2010, dated 2014).

Like-named read-outs stand apart in the source and are kept apart here. Where only a bound is given, the exact number is not on record here.

Series [1] is described as follows: Aqueous solubility. It counts as physicochemical.
The test system of series [2] is glioblastoma cells. The series can be described thus: Annexin-V/Propidium Iodide apoptosis assay. Particulars: combined with siRNA against EGFRvIII (200 nM), polymer 100 μM; SAHA 5 μM, erlotinib 30 μM; versus individual treatments. It counts as cell-based. The text has this:
Cells were harvested by trypsinization and stained using an Annexin V FITC Apoptosis Detection kit (Roche, Cambridge, Mass.) according to the manufacturer's protocol. The stained cells were immediately analyzed by flow cytometry (FACScan; Becton Dickinson, Franklin Lake, N.J.). Early apoptotic cells with exposed phosphatidylserine but intact cell membranes bound to Annexin V-FITC but excluded propidium iodide. Cells in necrotic or late apoptotic stages were labeled with both Annexin V-FITC and propidium iodide.

As for `OC[C@H]1O[C@@H]2O[C@H]3[C@H](O)[C@@H](O)[C@@H](O[C@H]4[C@H](O)[C@@H](O)[C@@H](O[C@H]5[C@H](O)[C@@H](O)[C@@H](O[C@H]6[C@H](O)[C@@H](O)[C@@H](O[C@H]7[C@H](O)[C@@H](O)[C@@H](O[C@H]8[C@H](O)[C@@H](O)[C@@H](O[C@H]1[C@H](O)[C@H]2O)O[C@@H]8CO)O[C@@H]7CO)O[C@@H]6CO)O[C@@H]5CO)O[C@@H]4CO)O[C@@H]3CO` [CD, β-cyclodextrin], the aqueous solubility in series [1] is given as < 1.8 g/100 mL. As to `O=C(CCCCCCC(=O)Nc1ccccc1)NO` [SAHA, suberoylanilide hydroxamic acid], the “induction of apoptosis (Annexin-V-FITC-positive cells)” value in series [2] is “greater induction of apoptosis”. `C#Cc1cccc(Nc2ncnc3cc(OCCOC)c(OCCOC)cc23)c1` [erlotinib, N-(3-ethynylphenyl)-6,7-bis(2-methoxyethoxy)quinazolin-4-amine] had an aqueous solubility in series [1] (drug loaded into / complexed with β-CD cavity) of 178 mg/100 mL. Moreover, the “induction of apoptosis (Annexin-V-FITC-positive cells)” value in series [2] was “cooperative induction of apoptosis”.
